{"source": "patent US10316020B2", "about": "“Indane derivatives and the use thereof as soluble guanylate cyclase activators” (NOVARTIS AG, priority 2015, dated 2019)", "data": [{"target": "T1, soluble guanylate cyclase (GUCYA3/GUCYB3) overexpressed in CHO cells (Homo sapiens, UniProt Q02108+Q02153)", "T1 construct": "expressed in transfected cells", "T1 sequence (Q02108 1-690 partner)": "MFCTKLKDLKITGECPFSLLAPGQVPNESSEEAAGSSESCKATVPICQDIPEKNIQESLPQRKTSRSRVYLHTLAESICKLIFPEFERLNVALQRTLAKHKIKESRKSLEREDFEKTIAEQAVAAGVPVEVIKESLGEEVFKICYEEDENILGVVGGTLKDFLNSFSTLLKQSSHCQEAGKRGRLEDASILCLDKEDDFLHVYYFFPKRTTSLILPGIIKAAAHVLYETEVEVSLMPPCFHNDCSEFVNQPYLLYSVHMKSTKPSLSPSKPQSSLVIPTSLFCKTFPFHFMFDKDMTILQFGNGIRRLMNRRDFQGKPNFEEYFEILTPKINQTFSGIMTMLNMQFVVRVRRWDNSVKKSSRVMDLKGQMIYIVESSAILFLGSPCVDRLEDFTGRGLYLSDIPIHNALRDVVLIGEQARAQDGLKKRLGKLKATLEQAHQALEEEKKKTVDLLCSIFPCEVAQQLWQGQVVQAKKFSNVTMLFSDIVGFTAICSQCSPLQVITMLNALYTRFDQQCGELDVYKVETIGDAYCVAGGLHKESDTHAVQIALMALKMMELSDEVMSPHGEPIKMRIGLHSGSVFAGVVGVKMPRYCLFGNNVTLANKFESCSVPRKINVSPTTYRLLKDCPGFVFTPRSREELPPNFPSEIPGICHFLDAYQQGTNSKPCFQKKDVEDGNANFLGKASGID", "T1 sequence (Q02153 1-619)": "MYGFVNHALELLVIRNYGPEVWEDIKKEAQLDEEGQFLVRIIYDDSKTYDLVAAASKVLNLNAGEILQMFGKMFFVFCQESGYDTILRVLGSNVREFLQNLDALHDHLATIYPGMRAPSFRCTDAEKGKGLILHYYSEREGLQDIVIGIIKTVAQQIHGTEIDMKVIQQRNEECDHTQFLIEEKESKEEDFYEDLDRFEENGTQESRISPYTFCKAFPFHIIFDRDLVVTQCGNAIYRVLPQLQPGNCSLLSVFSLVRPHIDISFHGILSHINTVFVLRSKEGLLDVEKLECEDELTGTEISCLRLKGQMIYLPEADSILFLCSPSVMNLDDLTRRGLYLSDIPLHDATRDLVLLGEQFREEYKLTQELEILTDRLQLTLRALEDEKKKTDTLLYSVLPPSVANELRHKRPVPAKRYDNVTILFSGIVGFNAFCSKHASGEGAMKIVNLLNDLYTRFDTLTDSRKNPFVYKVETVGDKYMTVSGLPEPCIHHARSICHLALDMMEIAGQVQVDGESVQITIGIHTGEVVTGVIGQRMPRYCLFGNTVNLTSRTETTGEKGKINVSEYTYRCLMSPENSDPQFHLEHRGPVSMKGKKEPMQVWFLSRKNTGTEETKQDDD", "test": "CHO cellular assay (cGMP production, HTRF)", "type": "cell-based", "conditions": "CHO GUCY clone 8E10; assay buffer with 1 mM IBMX, 20 uM ODQ; 1 h at room temperature; cGMP HTRF; quantification limit 0.0005 μM; read-out: Mean EC50", "text": "Chinese hamster ovary (CHO) cells overexpressing soluble guanylate cyclase were generated to test the effect of sGC activators in a cellular context. Human cDNAs for GUCYA3 (RefSeq: NM_000856.3) and GUCYB3 (RefSeq: NM_000857.1) were amplified by PCR from a HUVEC (Human Umbilical Vein Endothelial Cells) cDNA library and cloned into mammalian expression vectors. CHO K1 cells (ATCC CCL-61) were transfected using Lipofectamine 2000 following manufacturer's instructions and stably expressing clones were identified by antibiotic selection. CHO GUCY clone 8E10 was used for subsequent experiments.\nCells were seeded at a density of 3000 cells/well in white 384-well proxyplates (Perkin Elmer) and incubated overnight, then the medium was removed and cells were washed with assay buffer (HBSS, 0.1% BSA, 1 mM IBMX, 20 uM ODQ). sGC activators were serially diluted in DMSO, then diluted in assay buffer prior to adding to cells (10 ul/well, final DMSO concentration 0.5%). Cells were incubated with compounds for 1 h at room temperature, then assayed for cGMP production using Cisbio cGMP HTRF kit (62GM2PEC) according to manufacturer's instructions.\nThe EC50s are calculated based on the amount of cGMP interpolated from the standard curve, using a 4-parameter sigmoidal dose-response.\nCompounds of invention are active on sGC activation. Data in Table 1 collected using the assay of Biological Example 1.", "units": {"EC50": "nM"}, "values": [{"smiles": "CCc1nc(NC2CCc3cccc(-c4cccc(-n5ncc(C(=O)O)c5OC)c4)c32)ccc1C1=CCN(C(=O)[C@H](C)O)CC1", "note": "(single isomer, unassigned) [Example 11A, 1-(3-((S or R)-3-((2-Ethyl-1′-((S)-2-hydroxypropanoyl)-1′,2′,3′,6′-tetrahydro-[3,4′-bipyridin]-6-yl)amino)-2,3-dihydro-1H-inden-4-yl)phenyl)-5-methoxy-1H-pyrazole-4-carboxylic acid]", "EC50": 36}, {"smiles": "CCc1nc(NC2CCc3cccc(-c4cccc(-n5ncc(C(=O)O)c5OC)c4)c32)ccc1C1=CCN(C(=O)[C@H](C)O)CC1", "note": "(single isomer, unassigned) [Example 11B, 1-(3-((R or S)-3-((2-ethyl-1′-((S)-2-hydroxypropanoyl)-1′,2′,3′,6′-tetrahydro-[3,4′-bipyridin]-6-yl)amino)-2,3-dihydro-1H-inden-4-yl)phenyl)-5-methoxy-1H-pyrazole-4-carboxylic acid]", "EC50": 1.4}, {"smiles": "CCc1nc(NC2CCc3cccc(-c4cccc(-n5ncc(C(=O)O)c5OC)n4)c32)ccc1C1=CCN(C(=O)[C@H](C)O)CC1", "note": "(single isomer, unassigned) [Example 17A, 1-(6-((R or S)-3-((2-ethyl-1′-((S)-2-hydroxypropanoyl)-1′,2′,3′,6′-tetrahydro-[3,4′-bipyridin]-6-yl)amino)-2,3-dihydro-1H-inden-4-yl)pyridin-2-yl)-5-methoxy-1H-pyrazole-4-carboxylic acid]", "EC50": 71}, {"smiles": "CCc1nc(NC2CCc3cccc(-c4cccc(-n5ncc(C(=O)O)c5OC)n4)c32)ccc1C1=CCN(C(=O)[C@H](C)O)CC1", "note": "(single isomer, unassigned) [Example 17B, 1-(6-((S or R)-3-((2-ethyl-1′-((S)-2-hydroxypropanoyl)-1′,2′,3′,6′-tetrahydro-[3,4′-bipyridin]-6-yl)amino)-2,3-dihydro-1H-inden-4-yl)pyridin-2-yl)-5-methoxy-1H-pyrazole-4-carboxylic acid]", "EC50": 3.5}, {"smiles": "CCc1cc(NC2CCc3cccc(-c4ccc(C)c(-n5ncc(C(=O)O)c5OC)c4)c32)ccc1C1CCN(C(=O)C2CC2)CC1", "note": "(single isomer, unassigned; (+)) [Example 7A, (+)-1-(5-(3-((4-(1-(Cyclopropanecarbonyl)piperidin-4-yl)-3-ethylphenyl)amino)-2,3-dihydro-1H-inden-4-yl)-2-methylphenyl)-5-methoxy-1H-pyrazole-4-carboxylic acid]", "EC50": "< 0.5"}, {"smiles": "CCc1cc(NC2CCc3cccc(-c4ccc(OC)c(-n5ncc(C(=O)O)c5OC)c4)c32)ccc1C1CCN(C(=O)C2CC2)CC1", "note": "(single isomer, unassigned; (+)) [Example 8A, (+)-1-(5-(3-((4-(1-(Cyclopropanecarbonyl)piperidin-4-yl)-3-ethylphenyl)amino)-2,3-dihydro-1H-inden-4-yl)-2-methoxyphenyl)-5-methoxy-1H-pyrazole-4-carboxylic acid]", "EC50": "< 0.5"}, {"smiles": "CCc1cc(NC2CCc3cccc(-c4cccc(-n5ncc(C(=O)O)c5N)c4)c32)ccc1C1CCN(C(=O)C2CC2)CC1", "note": "(single isomer, unassigned; (+)) [Example 9A, (+)-5-Amino-1-(3-(3-((4-(1-(cyclopropanecarbonyl)piperidin-4-yl)-3-ethylphenyl)amino)-2,3-dihydro-1H-inden-4-yl)phenyl)-1H-pyrazole-4-carboxylic acid]", "EC50": 4}, {"smiles": "CCc1nc(NC2CCc3cccc(-c4cccc(-n5ncc(C(=O)O)c5OC)c4)c32)ccc1C1=CCN(C(=O)C2CC2)CC1", "note": "(single isomer, unassigned; (+)) [Example 10A, (+)-1-(3-(3-((1′-(Cyclopropanecarbonyl)-2-ethyl-1′,2′,3′,6′-tetrahydro-[3,4′-bipyridin]-6-yl)amino)-2,3-dihydro-1H-inden-4-yl)phenyl)-5-methoxy-1H-pyrazole-4-carboxylic acid]", "EC50": "< 0.5"}, {"smiles": "CCc1nc(NC2CCc3cccc(-c4cccc(-n5ncc(C(=O)O)c5OC)n4)c32)ccc1C1=CCN(C(=O)C2CC2)CC1", "note": "(single isomer, unassigned; (+)) [Example 16A, (+)-1-(6-(3-((1′-(Cyclopropanecarbonyl)-2-ethyl-1′,2′,3′,6′-tetrahydro-[3,4′-bipyridin]-6-yl)amino)-2,3-dihydro-1H-inden-4-yl)pyridin-2-yl)-5-methoxy-1H-pyrazole-4-carboxylic acid]", "EC50": "< 0.5"}, {"smiles": "CCc1nc(NC2CCc3cccc(-c4cccc(-n5ncc(C(=O)O)c5NC)c4)c32)ccc1C1=CCN(C(=O)C2CC2)CC1", "note": "(single isomer, unassigned; (+)) [Example 22A, (+)-1-(3-(3-((1′-(Cyclopropanecarbonyl)-2-ethyl-1′,2′,3′,6′-tetrahydro-[3,4′-bipyridin]-6-yl)amino)-2,3-dihydro-1H-inden-4-yl)phenyl)-5-(methylamino)-1H-pyrazole-4-carboxylic acid]", "EC50": "< 0.5"}, {"smiles": "CCc1cc(NC2CCc3cccc(-c4cccc(-n5ncc(C(=O)O)c5OC)c4)c32)ccc1C1CCN(C(=O)[C@H](C)O)CC1", "note": "(single isomer, unassigned; (-)) [Example 4B]", "EC50": 110}, {"smiles": "CCc1cc(NC2CCc3cccc(-c4ccc(C)c(-n5ncc(C(=O)O)c5OC)c4)c32)ccc1C1CCN(C(=O)C2CC2)CC1", "note": "(single isomer, unassigned; (-)) [Example 7B, (−)-1-(5-(3-((4-(1-(Cyclopropanecarbonyl)piperidin-4-yl)-3-ethylphenyl)amino)-2,3-dihydro-1H-inden-4-yl)-2-methylphenyl)-5-methoxy-1H-pyrazole-4-carboxylic acid]", "EC50": 2}, {"smiles": "CCc1cc(NC2CCc3cccc(-c4ccc(OC)c(-n5ncc(C(=O)O)c5OC)c4)c32)ccc1C1CCN(C(=O)C2CC2)CC1", "note": "(single isomer, unassigned; (-)) [Example 8B, (−)-1-(5-(3-((4-(1-(Cyclopropanecarbonyl)piperidin-4-yl)-3-ethylphenyl)amino)-2,3-dihydro-1H-inden-4-yl)-2-methoxyphenyl)-5-methoxy-1H-pyrazole-4-carboxylic acid]", "EC50": 86}, {"smiles": "CCc1cc(NC2CCc3cccc(-c4cccc(-n5ncc(C(=O)O)c5N)c4)c32)ccc1C1CCN(C(=O)C2CC2)CC1", "note": "(single isomer, unassigned; (-)) [Example 9B, (−)-5-Amino-1-(3-(3-((4-(1-(cyclopropanecarbonyl)piperidin-4-yl)-3-ethylphenyl)amino)-2,3-dihydro-1H-inden-4-yl)phenyl)-1H-pyrazole-4-carboxylic acid]", "EC50": 58}, {"smiles": "CCc1nc(NC2CCc3cccc(-c4cccc(-n5ncc(C(=O)O)c5OC)c4)c32)ccc1C1=CCN(C(=O)C2CC2)CC1", "note": "(single isomer, unassigned; (-)) [Example 10B, (−)-1-(3-(3-((1′-(Cyclopropanecarbonyl)-2-ethyl-1′,2′,3′,6′-tetrahydro-[3,4′-bipyridin]-6-yl)amino)-2,3-dihydro-1H-inden-4-yl)phenyl)-5-methoxy-1H-pyrazole-4-carboxylic acid]", "EC50": 149}]}]}
